Data set [1] deals with HCT116 colon cancer cells. In words: Cytotoxicity, sulphorodamine B, HCT116. The following applies: Homo sapiens, HCT-116, read-out: HCT116 cell line IC50 (μM).
Experimental: (§2) The plates were incubated for 24 h at 37° C., after which they were washed 3 times by removal of the supernatant and addition of PBS. The plates were then incubated for further 48 h at 37° C. 200 μl PBS and 50 μl of cold 80% TCA were added and the plates were incubated on ice for at least 1 h. TCA was removed and the plates were washed 3 times by immersion in distilled-water. They were then dried on paper at 40° C. for 5 min. 200 μl of 0.4% sulphorodamine B in 1% acetic acid were added. The plates were incubated at room temperature for further 30 min. Sulphorodamine B was removed, and the plates were washed 3 times by immersion in 1% acetic acid and were dried on paper and at 40° C. for 5 min. Then 200 μl Tris 10 mM were added. The plates were kept under magnetic stirring for 20 min. Cell survival was determined by means of optical density by a Multiskan spectrofluorimeter at 540 nm. The amount of cells killed was calculated as the percentage decrease in sulphorodamine B binding compared to control cultures.
Data set [2] relates to NCI-H460 non-small cell lung carcinoma cells. In words: Cytotoxicity, sulphorodamine B, H460. Conditions: Homo sapiens, NCI-H460, read-out: H460 cell line IC50 (μM).
Experimental: as §2
Data set [3] relates to NCI-H460 NSCLC. In words: Antitumour activity, NCI-H460 xenograft (Example 48).
Experimental: (§3) The tested derivatives were administered as a suspension in PBS/DMSO/Cremophor EL (Sigma): 85/10/5 (volume percentage). The antitumour activity was determined by measuring tumour diameters with a Vernier calliper according to the Formula TV=d^2×D/2
(§4) where d and D are the shortest and longest diameters, respectively.
(§5) When tumours reached a volume of about 1000 mm^3, mice were sacrificed by cervical dislocation. The efficacy of the drug was assessed as the tumour volume inhibition according to the Formula reported underneath:
(§6) Body weight recording was carried out to evaluate body weight loss as calculated in the equation underneath:
(§7) Wherein BW day x corresponds to the mean weight at day x of the experiment meanwhile BW day 1 corresponds to the mean weight at the first day of the experiment.
Data set [4] deals with HCT116 colon cancer. In words: Antitumour activity, HCT116 xenograft, oral (Example 49). The format is in vivo, mice. The following applies: 100 mg/10 ml/kg p.o., PEG200/DMSO/Cremophor EL. The text has this: (§1) The experiment of example 48 was repeated with another compound on mice animal model developing HCT116 colon cancer as described above or A2780 ovarian cancer, and administering the drugs solubilised in orally in PEG200/DMSO/Cremophor EL (Sigma): 85/10/5 (volume percentage).

Data set [5] deals with H929 multiple myeloma cells. In words: Antitumour activity, H929 xenograft (Example 48). The following applies: 100 mg/10 ml/kg i.p., qd×5/w×3w. The format is in vivo, CD1 nude mice.
Experimental: as §3, §4, §5, §6, §7
Data set [6] has as its system HCT116 colon cancer cells. In words: Antitumour activity, HCT116 xenograft (Example 48). The format is in vivo, CD1 nude mice. The following applies: 100 mg/10 ml/kg p.o., qd×5/w×3w.
Experimental: as §3, §4, §5, §6, §7
Data set [7] concerns K562 chronic myeloid leukemia cells. As to the kind of experiment: Cytotoxicity extended panel, K562. The format is cell-based. The following applies: Homo sapiens, suspension cells, 72 h. The protocol:
Cells were seeded in 96-well tissue culture plates at approximately 10% confluence. They were allowed to attach and recover for at least 24 h. Compounds of the present invention were then added to each well at various concentrations in order to define cell survival inhibition IC50. The plates were incubated for 72 h at 37° C., after which time they were washed 3 times by removal of the supernatant. 200 μl of PBS and 50 μl of cold 80% TCA were added and the plates were incubated on ice for at least 1 h. TCA was removed and the plates were washed 3 times by immersion in distilled water. They were then dried on paper at 40° C. for 5 min. 200 μl of 0.4% sulphorodamine B in 1% acetic acid were added. The plates were incubated at room temperature for further 30 min. Sulphorodamine B was removed, and the plates were washed 3 times by immersion in 1% acetic acid and were dried on paper at 40° C. for 5 min. Then 200 μl Tris 10 mM were added. The plates were kept under magnetic stirring for 20 min. Cell survival was determined by means of optical density by a Multiskan spectrofluorimeter at 540 nm. The amount of cells killed was calculated as the percentage decrease in sulphorodamine B binding compared to control cultures. The IC50 values (reported in Table 5) were calculated with the “ALLFIT” program. […]

The subject of data set [8] is A2780 ovarian cancer. In words: Antitumour activity, A2780 xenograft, oral (Example 49). In kind it is in vivo, mice. Conditions: 100 mg/10 ml/kg p.o., PEG200/DMSO/Cremophor EL.
Excerpt: as §1

[9] abbreviates: 100 mg/10 ml/kg i.p., qd×5/w×3w.

SMILES strings stand for the structures. Where only a bound is given, the exact number is not on record here.

By IC50 is commonly meant the concentration that inhibits the measured activity by half. On to `CC(=O)SCCCCC[C@H](NC(=O)[C@H]1C(=O)NC[C@@H]1c1ccccc1)C(=O)Nc1ccccc1` (relative stereo) [Example 19, Thioacetic acid S—{(S)-6-[((3R*,4S*)-2-oxo-4-phenyl-pyrrolidine-3-carbonyl)-amino]-6-phenylcarbamoyl-hexyl}ester], for which the IC50 in data set [1] and in data set [2] was < 0.5 µM in each case.

For the compound `CC(=O)SCCCCC[C@H](NC(=O)[C@H]1C(=O)NC[C@H]1c1ccccc1)C(=O)Nc1ccccc1` (relative stereo) [Example 20, Thioacetic acid S—{(S)-6-[((3R*,4R*)-2-oxo-4-phenyl-pyrrolidine-3-carbonyl)-amino]-6-phenylcarbamoyl-hexyl}ester], in data set [1], the IC50 lay within 0.5 to 1 µM.

As for `CC(=O)SCCCCC[C@H](NC(=O)C1CCCNC1=O)C(=O)Nc1ccccc1` (stereo in doubt) [Example 22, Thioacetic acid S—{(S)-6-[(R*)-(2-oxo-piperidine-3-carbonyl)-amino]-6-phenylcarbamoyl-hexyl}ester], in data set [1], the IC50 fell in the range of 1 to 10 µM. The compound `N.N.[Cl][Pt][Cl]` [Cisplatin] showed a TVI % in data set [3] (2 mg/10 ml/kg i.p., q4d/w×3w) of 56%.

In data set [4], `CC(=O)SCCCCCCC(=O)Nc1ccccc1` [Compound A, Thioacetic acid S-(6-phenylcarbamoyl-hexyl)ester] returned a BWL % of 0% and a TVI % of 11%. As to `CC(=O)SCCCCC[C@H](NC(=O)[C@@H]1CC(=O)N1)C(=O)Nc1ccccc1` [Example 1, Thioacetic acid S—{(S)-6-[((S)-4-oxo-azetidine-2-carbonyl)-amino]-6-phenylcarbamoyl-hexyl}ester], the IC50 in data set [2] was < 0.5 µM.

As to `CC(=O)SCCCCC[C@H](NC(=O)[C@@H]1CCCC(=O)N1)C(=O)NCCc1cccc(C)c1` [Example 5, Thioacetic acid S—[(S)-6-[((S)-6-oxo-piperidine-2-carbonyl)-amino]-6-(2-m-tolyl-ethylcarbamoyl)-hexyl]ester], in data set [2], the IC50 lay within 1 to 10 µM. Still for that read-out and setting: the same measure for `CC(=O)SCCCCC[C@H](NC(=O)[C@H]1CCC(=O)N1C)C(=O)Nc1cccc(C)c1` [Example 6, Thioacetic acid S—{(S)-6-[((R)-1-methyl-5-oxo-pyrrolidine-2-carbonyl)-amino]-6-m-tolylcarbamoyl-hexyl}ester]: < 0.5 µM. On the same count and under the same terms, the same measure for `CC(=O)SCCCCC[C@H](NC(=O)[C@@H]1CCC(=O)N1)C(=O)Nc1cccc(C)c1` [Example 7, Thioacetic acid S—{(S)-6-[((S)-5-oxo-pyrrolidine-2-carbonyl)-amino]-6-m-tolylcarbamoyl-hexyl}ester]: < 0.5 µM; for `CC(=O)SCCCCC[C@H](NC(=O)[C@H]1CCC(=O)N1)C(=O)Nc1cccc(C)c1` [Example 8, Thioacetic acid S—{(S)-6-[((R)-5-oxo-pyrrolidine-2-carbonyl)-amino]-6-m-tolylcarbamoyl-hexyl}ester]: < 0.5 µM. As to `CC(=O)SCCCCC[C@H](NC(=O)[C@@H]1CC=CC(=O)N1)C(=O)Nc1ccccc1` [Example 10, Thioacetic acid S—{(S)-6-[((S)-6-oxo-1,2,3,6-tetrahydro-pyridine-2-carbonyl)-amino]-6-phenylcarbamoyl-hexyl}ester], the IC50 in data set [2] was < 0.5 µM. Turning to `CC(=O)SCCCCC[C@H](NC(=O)[C@@H]1CCC(=O)N1)C(=O)Nc1ccccc1` [Example 11, Thioacetic acid S—{(S)-6-[((S)-5-oxo-pyrrolidine-2-carbonyl)-amino]-6-phenylcarbamoyl-hexyl}ester], the IC50 in data set [2] is < 0.5 µM.

For `CC(=O)SCCCCC[C@H](NC(=O)[C@H]1CCCC(=O)N1)C(=O)Nc1ccccc1` [Example 13, Thioacetic acid S—{(S)-6-[((R)-6-oxo-piperidine-2-carbonyl)-amino]-6-phenylcarbamoyl-hexyl}ester], the IC50 in data set [2] is < 0.5 µM. On the same count and under the same terms, the same measure for `CC(=O)SCCCCC[C@H](NC(=O)[C@@H]1CCCC(=O)N1)C(=O)Nc1ccc(C)cc1` [Example 15, Thioacetic acid S—{(S)-6-[((S)-6-oxo-piperidine-2-carbonyl)-amino]-6-p-tolylcarbamoyl-hexyl}ester]: < 0.5 µM; for `CC(=O)SCCCCC[C@H](NC(=O)[C@@H]1CCCC(=O)N1)C(=O)Nc1cccc(C)c1` [Example 16, Thioacetic acid S—{(S)-6-[((S)-6-oxo-piperidine-2-carbonyl)-amino]-6-m-tolylcarbamoyl-hexyl}ester]: < 0.5 µM. With `CC(=O)SCCCCC[C@H](NC(=O)[C@@H]1CCCC(=O)N1)C(=O)NC1CCCC1` [Example 17, Thioacetic acid S—{(S)-6-[((S)-6-oxo-piperidine-2-carbonyl)-amino]-6-cyclopentylcarbamoyl-hexyl}ester], the IC50 in data set [1] was in the range of 1 to 10 µM. Consider `CC(=O)SCCCCC[C@H](NC(=O)[C@H]1CCC(=O)N1)C(=O)Nc1cccc(C(F)(F)F)c1` [Example 18, Thioacetic acid S—[(S)-6-[((R)-5-oxo-pyrrolidine-2-carbonyl)-amino]-6-(3-trifluoromethyl-phenylcarbamoyl)-hexyl]ester], for which the IC50 in data set [2] is < 0.5 µM. Still for that read-out and setting: the same measure for `CCOC(=S)OCCCCC[C@H](NC(=O)[C@@H]1CCCC(=O)N1)C(=O)Nc1ccccc1` [Example 41, Thiocarbonic acid ethyl ester {(S)-6-[((S)-6-oxo-piperidine-2-carbonyl)-amino]-6-phenylcarbamoyl-hexyl}ester]: 0.5 to 1 µM; for `CCOC(=S)OCCCCC[C@H](NC(=O)[C@H]1CCC(=O)N1)C(=O)Nc1ccccc1` [Example 42, Thiocarbonic acid ethyl ester {(S)-6-[((R)-5-oxo-pyrrolidine-2-carbonyl)-amino]-6-phenylcarbamoyl-hexyl}ester]: < 0.5 µM. For `CC(C)C(=O)SCCCCC[C@H](NC(=O)[C@@H]1CCCC(=O)N1)C(=O)Nc1ccccc1` [Example 43, Thioisobutyric acid S—{(S)-6-[((S)-6-oxo-piperidine-2-carbonyl)-amino]-6-phenylcarbamoyl-hexyl}ester], the IC50 in data set [2] lay in the range of 1 to 10 µM. On to `O=C(CCCCCCC(=O)Nc1ccccc1)NO` [SAHA, suberoylanilide hydroxamic acid, reference compound], for which the BWL % in data set [4] came to 1%; in data set [5], 3%; in data set [6], 0%; in data set [3] (setting [9]), 0%; in data set [8], 4%. The TVI % in data set [4] was 32%; in data set [5], 21%; in data set [6], 47%; in data set [3] (setting [9]) it was 27%; in data set [8] it was 53%. Besides, in data set [7], the IC50 was 0.13 µM.

(Values after patent US8927533B2, “Thio derivatives bearing lactams as potent HDAC inhibitors and their uses as medicaments” (SIGMA-TAU Industrie Farmaceutiche Riunite S.p.A., priority 2011, dated 2015).)
